According to the NIST ThermoML archive (doi:10.1021/acs.jced.6b00355):
Numbers after ± are expanded uncertainties.

Assays:
[1] = Crystal; DTA
[2] = Molar enthalpy of transition or fusion; conditions: Crystal; DSC

SMILES | Normal melting temperature [1] | Molar enthalpy of transition or fusion [2]
CCCCCCCCCCCCCCCC(=O)OCC(COC(=O)CCCCCCCCCCCCCCC)OC(=O)CCCCCCCCCCCCCCC [1,2,3-propanetriyl tri(hexadecanoate)] | 67.6 ± 0.7 °C | 181 ± 5.2 kJ/mol
CCCCCCCCCCCCCC(=O)OCC(COC(=O)CCCCCCCCCCCCC)OC(=O)CCCCCCCCCCCCC [1,2,3-propanetriyl tri(tetradecanoate)] | 58.0 ± 0.7 °C | 154 ± 6.2 kJ/mol
CCCCCCCCCCCC(=O)OCC(COC(=O)CCCCCCCCCCC)OC(=O)CCCCCCCCCCC [1,2,3-propanetriyl tridodecanoate] | 48.8 ± 0.7 °C | 127 ± 2.5 kJ/mol
CCCCCCCCCCCC(=O)O [dodecanoic acid] | 44.2 ± 0.7 °C | 37.6 ± 0.89 kJ/mol
CCCCCCCCCCCCCCCCCC(=O)OCC(COC(=O)CCCCCCCCCCCCCCCCC)OC(=O)CCCCCCCCCCCCCCCCC [glycerol trioctadecanoate] | 73.5 ± 0.7 °C | 195 ± 8.6 kJ/mol
CCCCCCCCCCCCCCCC [hexadecane] | 18.2 ± 0.7 °C | –
CCCCCCCCCCCCCCCC(=O)O [hexadecanoic acid] | 62.8 ± 0.7 °C | 55.8 ± 1.5 kJ/mol
CCCCCCCCCCCCCCCCCC(=O)O [octadecanoic acid] | 70.0 ± 0.7 °C | 63.3 ± 1.7 kJ/mol
CCCCCCCCCCCCCC(=O)O [tetradecanoic acid] | 54.5 ± 0.7 °C | 44.9 ± 1.1 kJ/mol
